Laboratory results as given in patent US9408393B2, “Bismuth-thiols as antiseptics for agricultural, industrial and other uses” (Microbion Corporation, priority 2010, dated 2016).
Like-named read-outs stand apart in the source and are kept apart here.

Key:
S. epidermidis = test: Broth dilution MIC/MBC, BT-antibiotic combinations; assay type: cell-based, Staphylococcus epidermidis; conditions: for Δ (0.05 BE), MIC / Δ, MIC: 0.05 μg/ml BisEDT; for Δ (0.1 BE), MBC: 0.1 μg/ml BisEDT
Procedure: Materials & Methods. Susceptibility studies were performed by broth dilution in 96-well tissue culture plates (Nalge Nunc International, Denmark) in accordance with NCCLS protocols (National Committee for Clinical Laboratory Standards. (1997). Methods for Dilution Antimicrobial Susceptibility Tests for Bacteria that Grow Aerobically: Approved Standard M7-A2 and Informational Supplement M100-S10. NCCLS, Wayne, Pa., USA).
Briefly, overnight bacterial cultures were used to prepare 0.5 McFarland standard suspensions, which were further diluted 1:50 (˜2×10^6 cfu/mL) in cation-adjusted Mueller-Hinton broth medium (BBL, Cockeysville, Md., USA). BTs (prepared as described above) and antibiotics were added at incremental concentrations, keeping the final volume constant at 0.2 mL. Cultures were incubated for 24 h at 37° C. and turbidity was assessed by absorption at 630 nm using an ELISA plate reader (Biotek Instruments, Winooski, Vt., USA) according to the manufacturer's recommendations. […] Viable bacterial counts (cfu/mL) were determined by standard plating on nutrient agar.
The checkerboard method was used to assess the activity of antimicrobial combinations. The fractional inhibitory concentration index (FICI) and the fractional bactericidal concentration index (FBCI) were calculated, according to Eliopoulos et al. (Eliopoulos and Moellering, (1996) Antimicrobial combinations. In Antibiotics in Laboratory Medicine (Lorian, V., Ed.), pp. 330-96, Williams and Wilkins, Baltimore, Md., USA). Synergy was defined as an FICI or FBCI index of […], no interaction at >0.5-4 and antagonism at >4 (Odds, F C (2003) Synergy, antagonism, and what the chequerboard puts between them. Journal of Antimicrobial Chemotherapy 52:1). Synergy was also defined conventionally as ≧4-fold decrease in antibiotic concentration.

[1] = tested on: S. epidermidis S2400-1 biofilm; test: Biofilm prevention, BisEDT-antibiotic combinations; assay type: cell-based, Staphylococcus epidermidis; conditions: for Δ (0.05 BE), biofilm prevention: 0.05 μg/ml BisEDT
Procedure: (§1) S. epidermidis grown in TSB+2% glucose in polystyrene plates for 48 h at 37° C. Gatifloxacin (GF), clindamycin (CM), minocycline (MC), gentamicin (GM), vancomycin (VM), cefazolin (CZ), nafcillin (NC), and rifampicin (RP). […]

MRSA clinical isolates [2] = test: Broth dilution MIC in BHIG/X medium with subMIC BisEDT; assay type: cell-based, Staphylococcus aureus; conditions: Staphylococcus aureus, MRSA, 12 MRSA clinical isolates, BHIG/X, mean ± SD
Procedure: (§2) Broth dilution antimicrobial susceptibility studies were performed against 12 MRSA strains using several antibiotics combined with subMIC levels of BisEDT (Table 18). Both the biofilm-prevention concentration (BPC) and the minimum inhibitory concentration (MIC) were determined in a special biofilm culture medium (BHIG/X). […] These strains were already sensitive to vancomycin, but were made considerably moreso in the presence of subMIC BisEDT.
In this particular study, the data indicated synergy between BisEDT and cefepime (FIC<0.5), with many of the isolates at the breakpoint for sensitivity.

[3] = tested on: MRSA clinical isolates biofilm; test: Biofilm-prevention concentration (BPC) in BHIG/X medium with subMIC BisEDT; assay type: cell-based, Staphylococcus aureus; conditions: 12 MRSA clinical isolates, mean ± SD
Procedure: as §2

S. epidermidis biofilm = test: Biofilm prevention concentration (BPC), BisEDT and antibiotics; assay type: cell-based, Staphylococcus epidermidis; conditions: for Fold reduction of BPC in presence of subMIC BisEDT: TSB + 2% glucose, 48 h
Procedure: as §1

MRSA clinical isolates [4] = conditions: cited from earlier work; for MIC Standards, R (resistance): Standard MIC breakpoint for resistance; for MIC Standards, S (antibiotic sensitivity): Standard MIC breakpoint for sensitivity
[5] = tested on: lawn of MRSA (Methicillin-resistant S. aureus); test: Antibiotic-soaked discs on bacterial lawn with and without BisEDT; assay type: cell-based, Staphylococcus aureus; conditions: antibiotic discs combined with BisEDT 0.05 μg/ml
Procedure: FIGS. 4A and 4B show the subinhibitory BisEDT reversing antibiotic-resistance to several antibiotics. Effects of antibiotics with and without BisEDT (0.05 μg/ml) on a lawn of MRSA (Methicillin-resistant S. aureus) is shown. […] [GM=gentamicin, CZ=cefazolin, FEP=cefepime, IPM=imipenim, SAM=ampicillin/sulbactam, LVX=levofloxacin.

[6] = tested on: Staphylococcus aureus (SA, MRSA); test: Single-point BisEDT-antibiotic combination FICI; assay type: cell-based
Enterococcus faecalis = test: Single-point BisEDT-antibiotic combination FICI; assay type: cell-based; conditions: E Fc 3121
Escherichia coli = test: Single-point BisEDT-antibiotic combination FICI; assay type: cell-based
Klebsiella pneumoniae = test: Single-point BisEDT-antibiotic combination FICI; assay type: cell-based; conditions: KP 1231
Pseudomonas aeruginosa = test: Single-point BisEDT-antibiotic combination FICI; assay type: cell-based; conditions: PA 1380
Burkholderia cepacia = test: Single-point BisEDT-antibiotic combination FICI; assay type: cell-based; conditions: Bcep 1756
Bukholderia multivorans = test: Single-point BisEDT-antibiotic combination FICI; assay type: cell-based; conditions: Bmult 5665
Acinetobacter baumanii = test: Single-point BisEDT-antibiotic combination FICI; assay type: cell-based; conditions: Abau 2594
[7] = tested on: Streptococcus pneumoniae (SP, PRSP); test: Single-point BisEDT-antibiotic combination FICI; conditions: PRSP 5348
[8] = S. epidermidis S2400-1, BisEDT 0 μg/ml
[9] = S. epidermidis S2400-1, BisEDT 0.0 μg/ml
[10] = S. epidermidis S2400-1, BisEDT 0.05 μg/ml
[11] = S. epidermidis S2400-1, BisEDT 0.1 μg/ml
[12] = S. epidermidis ATCC 35984, BisEDT 0.0 μg/ml
[13] = S. epidermidis ATCC 35984, BisEDT 0.05 μg/ml

Δ (0.05 BE), MIC (S. epidermidis; S. epidermidis S2400-1)	MIC (S. epidermidis; [8]) [µg/mL]	MIC (S. epidermidis; [10]) [µg/mL]	MIC (S. epidermidis; [11]) [µg/mL]	Δ, MIC (S. epidermidis; S. epidermidis ATCC 35984)	MIC (S. epidermidis; [12]) [µg/mL]	SMILES	Δ (0.1 BE), MBC (S. epidermidis; S. epidermidis S2400-1)	MBC (S. epidermidis; [9]) [µg/mL]	MBC (S. epidermidis; [11]) [µg/mL]	Δ (0.05 BE), biofilm prevention [1]	Biofilm Prevention (antibiotic concentration) ([1]; BisEDT 0 μg/ml) [µg/mL]	Biofilm Prevention (antibiotic concentration) ([1]; BisEDT 0.05 μg/ml) [µg/mL]	Biofilm Prevention (antibiotic concentration) ([1]; BisEDT 0.1 μg/ml) [µg/mL]	BPC ([3]; BisEDT 0 μg/mL) [µg/mL]	BPC ([3]; BisEDT 0.025 μg/mL) [µg/mL]	BPC ([3]; BisEDT 0.05 μg/mL) [µg/mL]	BPC ([3]; BisEDT 0.1 μg/mL) [µg/mL]	MIC Standards, R (resistance) (MRSA clinical isolates [4])	MIC Standards, S (antibiotic sensitivity) (MRSA clinical isolates [4])	Fold reduction of BPC in presence of subMIC BisEDT (S. epidermidis biofilm) [fold]	also measured
–	–	–	–	–	–	Cc1cc(NS(=O)(=O)c2ccc(N)cc2)no1 [sulphamethoxazole]	–	–	–	–	–	–	–	–	–	–	–	–	–	–	Antibiotic action on MRSA lawn with subMIC BisEDT [5]: enhanced antibiotic action
2.13	1.7	0.8	0.3	–	–	COc1c(N2CCNC(C)C2)c(F)cc2c(=O)c(C(=O)O)cn(C3CC3)c12 (centres unmarked) [Gatifloxacin, gatifloxacin]	2.00	2.8	1.4	16.0	1.6	0.1	0.1	3.6 ± 2.6	2.6 ± 0.9	2.4 ± 1.1	0.9 ± 0.8	≧8 μg/ml	≦2 μg/ml	10	MIC (MRSA clinical isolates [2]; BisEDT 0 μg/mL, read-out: MIC): 3.6 ± 2.6 µg/mL; MIC (MRSA clinical isolates [2]; BisEDT 0.025 μg/mL, read-out: MIC): 4 ± 2.8 µg/mL; MIC (MRSA clinical isolates [2]; BisEDT 0.05 μg/mL, read-out: MIC): 4 ± 2.8 µg/mL; MIC (MRSA clinical isolates [2]; BisEDT 0.1 μg/mL, read-out: MIC): 2.4 ± 1.1 µg/mL
2.63	1.13	0.43	0.10	3.3	0.13	CN(C)c1ccc(O)c2c1C[C@H]1C[C@H]3[C@H](N(C)C)C(O)=C(C(N)=O)C(=O)[C@@]3(O)C(O)=C1C2=O [Minocycline, minocycline]	1.00	1.20	1.20	1.2	0.85	0.73	0.08	–	–	–	–	–	–	–	MIC (S. epidermidis; [13]): 0.04 µg/mL; FICI, single-point BisEDT-antibiotic combination ([6]; MRSA 773): 1.23; FICI, single-point BisEDT-antibiotic combination ([6]; SA 100): 1.09; FICI, single-point BisEDT-antibiotic combination (Enterococcus faecalis): 1.11; FICI, single-point BisEDT-antibiotic combination (Escherichia coli; EC 102): 1.37; FICI, single-point BisEDT-antibiotic combination (Escherichia coli; EC 2232): 1.04; FICI, single-point BisEDT-antibiotic combination (Klebsiella pneumoniae): 1.29; FICI, single-point BisEDT-antibiotic combination (Pseudomonas aeruginosa): 0.99; FICI, single-point BisEDT-antibiotic combination (Burkholderia cepacia): 2.23; FICI, single-point BisEDT-antibiotic combination (Bukholderia multivorans): 1.12; FICI, single-point BisEDT-antibiotic combination (Acinetobacter baumanii): 1.29; FICI, single-point BisEDT-antibiotic combination [7]: 0.46
2.67	2048	768	24	2	2048.00	CCC[C@@H]1C[C@@H](C(=O)N[C@@H]([C@H]2O[C@H](SC)[C@H](O)[C@@H](O)[C@H]2O)[C@H](C)Cl)N(C)C1 [Clindamycin, clindamycin]	2.67	2048	768	24.9	1195	48	12	–	–	–	–	–	–	50	MIC (S. epidermidis; [13]): 1024.00 µg/mL

SMILES	Δ (0.05 BE), MIC (S. epidermidis; S. epidermidis S2400-1)	MIC (S. epidermidis; [8]) [µg/mL]	MIC (S. epidermidis; [10]) [µg/mL]	MIC (S. epidermidis; [11]) [µg/mL]	Δ, MIC (S. epidermidis; S. epidermidis ATCC 35984)	MIC (S. epidermidis; [12]) [µg/mL]	Δ (0.1 BE), MBC (S. epidermidis; S. epidermidis S2400-1)	MBC (S. epidermidis; [9]) [µg/mL]	MBC (S. epidermidis; [11]) [µg/mL]	Δ (0.05 BE), biofilm prevention [1]	Biofilm Prevention (antibiotic concentration) ([1]; BisEDT 0 μg/ml) [µg/mL]	Biofilm Prevention (antibiotic concentration) ([1]; BisEDT 0.05 μg/ml) [µg/mL]	Biofilm Prevention (antibiotic concentration) ([1]; BisEDT 0.1 μg/ml) [µg/mL]	BPC ([3]; BisEDT 0 μg/mL) [µg/mL]	BPC ([3]; BisEDT 0.025 μg/mL) [µg/mL]	BPC ([3]; BisEDT 0.05 μg/mL) [µg/mL]	BPC ([3]; BisEDT 0.1 μg/mL) [µg/mL]	MIC Standards, R (resistance) (MRSA clinical isolates [4])	MIC Standards, S (antibiotic sensitivity) (MRSA clinical isolates [4])	Fold reduction of BPC in presence of subMIC BisEDT (S. epidermidis biofilm) [fold]	also measured
CN[C@H](CC(C)C)C(=O)N[C@H]1C(=O)N[C@@H](CC(N)=O)C(=O)N[C@H]2C(=O)N[C@H]3C(=O)N[C@H](C(=O)N[C@H](C(=O)O)c4cc(O)cc(O)c4-c4cc3ccc4O)[C@H](O)c3ccc(c(Cl)c3)Oc3cc2cc(c3O[C@@H]2O[C@H](CO)[C@@H](O)[C@H](O)[C@H]2O[C@H]2C[C@](C)(N)[C@H](O)[C@H](C)O2)Oc2ccc(cc2Cl)[C@H]1O [Vancomycin, vancomycin]	1.40	3.2	2.3	0.3	–	–	3.86	5.4	1.4	3.6	3.2	0.9	0.1	2.5 ± 1.7	1.5 ± 0.6	1.3 ± 0.5	0.7 ± 0.4	≧32 μg/ml	≦4 μg/ml	–	Synergy, MBC (S. epidermidis; S. epidermidis S2400-1): borderline; MIC (MRSA clinical isolates [2]; BisEDT 0 μg/mL): 2.5 ± 1.7 µg/mL; MIC (MRSA clinical isolates [2]; BisEDT 0.025 μg/mL): 2.5 ± 1.7 µg/mL; MIC (MRSA clinical isolates [2]; BisEDT 0.05 μg/mL): 1.5 ± 0.6 µg/mL; MIC (MRSA clinical isolates [2]; BisEDT 0.1 μg/mL): 1.3 ± 0.5 µg/mL; Change of biofilm prevention concentration (BPC) (S. epidermidis biofilm; 0.05 μg/ml BisEDT): modest decreases
